Data from PMC8395335, “Serotonergic–Muscarinic Interaction within the Prefrontal Cortex as a Novel Target to Reverse Schizophrenia-Related Cognitive Symptoms” (International Journal of Molecular Sciences, 2021).
Read-outs that look alike come from different tables or passages of the source.

What was measured:
[1] = Pharmacokinetic analysis of drug-drug interactions (plasma, FC concentration, FC penetration); format: in vivo, mice; details: for Kp at 30 min: frontal cortex/plasma
Method: The experiment was performed using the methods described by Bridges et al. and in our previous studies.
The pharmacokinetic analysis was performed in the blood and prefrontal cortex. […] Plasma and FC samples were stored at −80 °C until analysis.
The investigated compounds were administered alone at the top dose (F15599—0.1 mg/kg, VU0357017—5 mg/kg, VU0152100—1 mg/kg, and VU0238429—5 mg/kg) and in combinations of muscarinic ligands at subeffective doses with F15599 at subeffective dose (F15599 + VU0357017 0.05 and 0.15 mg/kg, F15599 + VU0152100 0.05 and 0.05 mg/kg, F15599 + VU0238429 0.05 and 1 mg/kg). The FC and blood were collected on the eighth day, 30 min after administration. All mice were parallelly treated with MK-801 (0.3 mg/kg) for seven consecutive days.
On the day of analysis, frozen whole mouse brain tissues were weighed and homogenized in 1:2 (w/v) volumes of ice-cold acetonitrile containing 0.1% FA and the internal standard mix. Samples were homogenized using a Metal Bead Lysing Matrix, vortexed for 1 min, shaken for 20 min at 4 °C on Thermomixer C, and centrifuged at 14,000× g rpm for 20 min at 4 °C. Finally, 50 µL of supernatant were diluted with 0.1% FA in water (1:1, v/v) and analyzed using HPLC/MS/MS.
The sample extraction of plasma (20 μL) was performed after spiking with the internal standard mix using the protein precipitation method and three volumes of ice-cold acetonitrile containing 0.1% formic acid. The extract was vortexed, incubated on ice for 20 min and centrifuged at 14,000× g rpm for 20 min at 4 °C. The supernatant was diluted with 0.1% FA in water (1:1, v/v) and analyzed by means of HPLC/MS/MS using a QTRAP 4500 (AB Sciex) mass spectrometer in positive ion mode in Multiple Reaction Monitoring (MRM screening) coupled with UHPLC (NEXERA XR, Shimadzu). Chromatographic separation was achieved on a Synergi 4 µm Fusion-RP 80 A 50 × 2 mm (Phenomenex) column at a flow rate of 0.2 mL/min. The gradient program was as follows: 20% B (0.3 min), 20–100% B (1.7 min), 100% B (3 min), 100–20% B (0.1 min), 20% B (2 min), solvent A (95:5:0.1% formic acid in water:methanol) and solvent B (methanol containing 0.1% formic acid). The column temperature was set to 40 °C. Analyst software was used to control the instrument and collect data. The ion transfer tube temperature was 300 °C. The spray voltage, collision energy, declastering potential, and gas parameters were optimized to achieve the maximal response using the test compounds. Selected reaction monitoring was carried out using the transition parameters. Calibration curves were constructed, and a linear response was obtained in the range of 0.25–500 ng/mL (VU357017, VU0152100, and F15599) and 1.25–2500 ng/mL (VU0238429) by spiking known amounts of each compound in blank brain homogenates and plasma. For VU0357017 and F15599 IS VU0152100 was used as internal standard. Sample concentration of internal standard was 100 ng/mL for IS VU0238429 and 50 ng/mL for IS VU0152100.
Brain penetration was calculated as FC/plasma ratio × 100%.

[2] = system: MK-801-treated mice; assay: Novel object recognition (NOR) test, MK-801-induced deficits; format: in vivo; details: for Reversal of MK-801-induced disruptions in NOR test by combined administration: 7 days; for Effect of combined administration on MK-801-induced memory deficits in the NOR test: subeffective doses
Method: Drugs were administered on two different schedules: (1) acute administration of compounds 45 min (WAY100635—5-HT1A antagonist) or 30 min (VU0357017, VU152100, VU0238429, and F15599) before MK-801 (also administered once 30 min before the test in Y-maze or T1 in NOR test); and (2) prolonged administration (once per day for 7 consecutive days) of the compounds and MK-801 with the last administration 24 h before the test (NOR test) or at the day of the test (Y-maze). […] Schedules of administration are presented graphically in Figure 2. The subeffective doses of the compounds for acute administration in the NOR test were chosen based on our previous research (see: [22, 23]) while dose-dependent studies of the activity of the compounds in reversing disruptions in the Y-maze or after prolonged administration along with MK-801 were performed within this study. Different vehicles were used throughout the study: (1) 0.9% NaCl and (2) 10% Tween 80. Vehicles were administered to all animals (e.g., control mice and MK-801-treated mice) on the same schedule as drugs were administered to the appropriate drug-treated groups of mice. Neither solvent exerted effects on animal behavior.
Male Albino Swiss mice (Charles River, Sulzfeld, Germany) weighing 20–25 g at the beginning of the experiments were used in the studies. The animals were housed in a room with a 12:12 h light-dark cycle at a temperature of 22 ± 1 °C with food and water available ad libitum. The experimental groups consisted of 8–10 animals. All drugs were administered intraperitoneally (i.p.) at a volume of 10 mL/kg. The behavioral experiments were performed by an observer who was blinded to the treatment. The procedures were conducted in accordance with the European Communities Council Directive of 22 September 2010 (2010/63/EU) and Polish legislation acts concerning animal experimentation and were approved by the II Local Ethics Committee by the Maj Institute of Pharmacology, Polish Academy of Sciences in Krakow (15/2020, 240/2020).
In acute experiments, the tested compounds (alone or in combination) were administered 30 min before MK-801 (0.3 mg/kg), which was administered 30 min before the test or training trial (T1) in the NOR test. In chronic experiments, the tested compounds (alone or in combination) and MK-801 were administered for seven days. Behavioral tests were performed on the eighth day.
The NOR test was performed as described previously. Briefly, the habituation, training and test trial were carried out in a dark room in a black, plastic rectangular arena illuminated with a 355 lux bulb. During the habituation trial, the animals were allowed to explore the arena in the absence of objects (10 min/day for 2 days). The next day, the training (T1) and test (T2) trials were performed. Throughout T1, mice were allowed to freely explore two identical objects (5 min), one of which was subsequently replaced by a novel object in T2 (1 h later, 5 min of exploration). Time spent exploring (i.e., sniffing or touching) the familiar (Tfamiliar) or novel object (Tnovel) was measured by a trained observer, and then the recognition index was calculated for each mouse [(Tnovel − Tfamiliar)/(Tfamiliar + Tnovel)] × 100.

[3] = Albino Swiss, mouse, in vivo, 30 min
[4] = F15599 0.05 mg/kg with VU0238429 1 mg/kg (subeffective doses)

## Cc1cnc(CNCC2(F)CCN(C(=O)c3ccc(F)c(Cl)c3)CC2)nc1 [F15599]
[1]; Albino Swiss, mouse, in vivo, 0.1 mg/kg, 30 min
  PFC: 21.57 ± 1.26 ng/mL
[1]; Albino Swiss, mouse, in vivo, 0.1 mg/kg, PFC
  concentration at 30 min: 0.0183 ± 0.00084 µg/mL
[1]; [3]
  Decrease of FC penetration after prolonged administration compared to acute: ca. 50%
  Decrease of FC penetration of F15599 when administered simultaneously: ~ 50%
[1]; mouse, in vivo
  Effect of chronic administration of subeffective doses (combinations) on brain penetration: increased
[2]; 7 days with MK-801, 0.025 mg/kg i.p.
  Reversal of MK-801-induced deficits in the NOR test (recognition index): ineffective
[2]; 7 days with MK-801, 0.1 mg/kg i.p.
  Reversal of MK-801-induced deficits in the NOR test (recognition index): reversed
[2]; F15599 0.05 mg/kg with VU0152100 0.05 mg/kg (subeffective doses)
  Reversal of MK-801-induced disruptions in NOR test by combined administration: reversed
[2]; [4]
  Reversal of MK-801-induced disruptions in NOR test by combined administration: reversed
[2]; F15599 0.05 mg/kg with VU0357017 0.15 mg/kg (subeffective doses)
  Reversal of MK-801-induced disruptions in NOR test by combined administration: reversed
[2]; acute, 0.05 mg/kg i.p., 30 min before MK-801
  Reversal of MK-801-induced deficits in the NOR test (recognition index): ineffective
[2]; acute, 0.1 mg/kg i.p., 30 min before MK-801 (0.3 mg/kg)
  Reversal of MK-801-induced deficits in the NOR test (recognition index): reversed
[2]; acute, 0.5 mg/kg i.p., 30 min before MK-801
  Reversal of MK-801-induced deficits in the NOR test (recognition index): reversed
[2]; acute, F15599 with VU0152100
  Effect of combined administration on MK-801-induced memory deficits in the NOR test: no effect
[2]; acute, F15599 with VU0238429
  Effect of combined administration on MK-801-induced memory deficits in the NOR test: no effect
[2]; acute, F15599 with VU0357017
  Effect of combined administration on MK-801-induced memory deficits in the NOR test: no effect

## COc1ccc(CN2C(=O)C(=O)c3cc(OC(F)(F)F)ccc32)cc1 [VU0238429]
[1]; Albino Swiss, mouse, intraperitoneal, acute, combination F15599 0.05 mg/kg + VU0238429 1 mg/kg, read-out: PFC Penetration
  Kp at 30 min: 0.36
[1]; Albino Swiss, mouse, intraperitoneal, acute, top doses alone (VU0357017 5, VU0152100 1, VU0238429 5, F15599 0.1 mg/kg), 30 min after administration, read-out: PFC Penetration (FC/plasma ratio x 100%)
  Kp at 30 min: 0.53
[1]; Albino Swiss, mouse, intraperitoneal, chronic (7 days with MK-801), combination F15599 0.05 mg/kg + VU0238429 1 mg/kg, read-out: PFC Penetration
  Kp at 30 min: 0.15
[1]; Albino Swiss, mouse, intraperitoneal, chronic (7 days with MK-801), top doses alone (VU0357017 5, VU0152100 1, VU0238429 5, F15599 0.1 mg/kg), read-out: PFC Penetration (FC/plasma ratio x 100%)
  Kp at 30 min: 0.21
[1]; Albino Swiss, mouse, plasma, intraperitoneal, acute, combination F15599 0.05 mg/kg + VU0238429 1 mg/kg, read-out: Plasma
  concentration at 30 min: 0.12 ± 0.0139 µg/mL
[1]; Albino Swiss, mouse, plasma, intraperitoneal, acute, top doses alone (VU0357017 5, VU0152100 1, VU0238429 5, F15599 0.1 mg/kg), 30 min after administration, read-out: Plasma
  concentration at 30 min: 0.486 ± 0.178 µg/mL
[1]; Albino Swiss, mouse, plasma, intraperitoneal, chronic (7 days with MK-801), combination F15599 0.05 mg/kg + VU0238429 1 mg/kg, read-out: Plasma
  concentration at 30 min: 0.035 ± 0.00889 µg/mL
[1]; Albino Swiss, mouse, plasma, intraperitoneal, chronic (7 days with MK-801), top doses alone (VU0357017 5, VU0152100 1, VU0238429 5, F15599 0.1 mg/kg), read-out: Plasma
  concentration at 30 min: 0.844 ± 0.235 µg/mL
[1]; Albino Swiss, mouse, prefrontal cortex (FC), intraperitoneal, acute, combination F15599 0.05 mg/kg + VU0238429 1 mg/kg, read-out: PFC
  concentration at 30 min: 0.0431 ± 0.00181 µg/mL
[1]; Albino Swiss, mouse, prefrontal cortex (FC), intraperitoneal, acute, top doses alone (VU0357017 5, VU0152100 1, VU0238429 5, F15599 0.1 mg/kg), 30 min after administration, read-out: PFC
  concentration at 30 min: 0.256 ± 0.0321 µg/mL
[1]; Albino Swiss, mouse, prefrontal cortex (FC), intraperitoneal, chronic (7 days with MK-801), combination F15599 0.05 mg/kg + VU0238429 1 mg/kg, read-out: PFC
  concentration at 30 min: 0.00513 ± 0.00083 µg/mL
[1]; Albino Swiss, mouse, prefrontal cortex (FC), intraperitoneal, chronic (7 days with MK-801), top doses alone (VU0357017 5, VU0152100 1, VU0238429 5, F15599 0.1 mg/kg), read-out: PFC
  concentration at 30 min: 0.179 ± 0.025 µg/mL
[1]; FC penetration versus earlier whole-brain data
  Fold higher penetration to the FC than to whole brain: more than 6 times
[1]; acute, top doses alone (VU0357017 5, VU0152100 1, VU0238429 5, F15599 0.1 mg/kg), 30 min after administration
  PFC Penetration (FC/plasma ratio x 100%): 53%
[1]; chronic (7 days with MK-801), top doses alone (VU0357017 5, VU0152100 1, VU0238429 5, F15599 0.1 mg/kg)
  PFC Penetration (FC/plasma ratio x 100%): 21%
[1]; subeffective doses, compared to top dose alone
  Decrease of FC penetration after acute concomitant administration with F15599: ~ 40%
[1]; top doses alone, animals treated with MK-801
  Decrease of FC penetration after prolonged administration compared to acute: ca. 50%
[2]; 7 days with MK-801, 0.5 mg/kg
  Reversal of MK-801-induced deficits in the NOR test (recognition index): ineffective
[2]; 7 days with MK-801, 1 mg/kg
  Reversal of MK-801-induced deficits in the NOR test (recognition index): ineffective
[2]; 7 days with MK-801, 5 mg/kg
  Reversal of MK-801-induced deficits in the NOR test (recognition index): active
[2]; [4]
  Reversal of MK-801-induced disruptions in NOR test by combined administration: reversed
[2]; acute, 5 mg/kg i.p., alone
  Effect of top dose on MK-801-induced deficits in the NOR test: pro-cognitive effect
[2]; acute, F15599 with VU0238429
  Effect of combined administration on MK-801-induced memory deficits in the NOR test: no effect
